Test results taken from ChEMBL document CHEMBL5291721, “A preclinical secondary pharmacology resource illuminates target-adverse drug reaction associations of marketed drugs” (Nat Commun, 2023).

Assays:
D(1A) dopamine receptor [1] = molecular target: T1, D(1A) dopamine receptor (Homo sapiens, UniProt P21728)
[2] = molecular target: T2, Alpha-1A adrenergic receptor (Homo sapiens, UniProt P35348)
T2 sequence (P35348 whole entry): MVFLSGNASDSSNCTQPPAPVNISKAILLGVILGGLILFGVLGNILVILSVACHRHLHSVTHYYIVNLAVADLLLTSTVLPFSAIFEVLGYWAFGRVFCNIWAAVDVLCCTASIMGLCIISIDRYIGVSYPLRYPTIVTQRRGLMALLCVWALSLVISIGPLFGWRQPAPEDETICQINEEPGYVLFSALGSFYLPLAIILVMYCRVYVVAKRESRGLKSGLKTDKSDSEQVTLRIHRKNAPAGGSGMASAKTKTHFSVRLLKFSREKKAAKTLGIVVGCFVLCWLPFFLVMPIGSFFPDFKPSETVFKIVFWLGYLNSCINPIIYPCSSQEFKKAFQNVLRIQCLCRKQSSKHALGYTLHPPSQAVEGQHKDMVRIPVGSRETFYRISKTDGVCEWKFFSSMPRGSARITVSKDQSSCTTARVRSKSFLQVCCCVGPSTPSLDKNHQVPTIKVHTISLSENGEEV

Estrogen receptor = molecular target: T3, Estrogen receptor (Homo sapiens, UniProt P03372); assay type: functional
T3 sequence (P03372 whole entry): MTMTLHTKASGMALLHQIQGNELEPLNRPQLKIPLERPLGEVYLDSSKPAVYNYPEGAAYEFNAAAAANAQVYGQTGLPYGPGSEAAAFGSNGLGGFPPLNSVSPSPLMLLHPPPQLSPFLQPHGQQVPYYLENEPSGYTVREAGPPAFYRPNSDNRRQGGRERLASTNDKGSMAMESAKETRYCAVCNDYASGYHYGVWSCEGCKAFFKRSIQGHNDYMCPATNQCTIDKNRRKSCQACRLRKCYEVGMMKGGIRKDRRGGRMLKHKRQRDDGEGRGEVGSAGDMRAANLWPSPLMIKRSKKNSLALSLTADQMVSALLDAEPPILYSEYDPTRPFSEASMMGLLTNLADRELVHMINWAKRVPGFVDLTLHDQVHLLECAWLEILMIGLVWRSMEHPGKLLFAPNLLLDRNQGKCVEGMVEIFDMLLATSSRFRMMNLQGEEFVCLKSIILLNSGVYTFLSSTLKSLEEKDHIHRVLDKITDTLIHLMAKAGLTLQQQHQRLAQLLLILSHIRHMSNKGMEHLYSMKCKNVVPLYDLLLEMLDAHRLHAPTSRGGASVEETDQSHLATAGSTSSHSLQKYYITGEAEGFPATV

[3] = molecular target: Epidermal growth factor receptor (Homo sapiens, UniProt P00533); assay type: functional
D(1A) dopamine receptor [4] = molecular target: T1, D(1A) dopamine receptor; assay type: functional, cell-based
Glucocorticoid receptor = molecular target: T4, Glucocorticoid receptor (Homo sapiens, UniProt P04150); assay type: functional
T4 sequence (P04150 whole entry): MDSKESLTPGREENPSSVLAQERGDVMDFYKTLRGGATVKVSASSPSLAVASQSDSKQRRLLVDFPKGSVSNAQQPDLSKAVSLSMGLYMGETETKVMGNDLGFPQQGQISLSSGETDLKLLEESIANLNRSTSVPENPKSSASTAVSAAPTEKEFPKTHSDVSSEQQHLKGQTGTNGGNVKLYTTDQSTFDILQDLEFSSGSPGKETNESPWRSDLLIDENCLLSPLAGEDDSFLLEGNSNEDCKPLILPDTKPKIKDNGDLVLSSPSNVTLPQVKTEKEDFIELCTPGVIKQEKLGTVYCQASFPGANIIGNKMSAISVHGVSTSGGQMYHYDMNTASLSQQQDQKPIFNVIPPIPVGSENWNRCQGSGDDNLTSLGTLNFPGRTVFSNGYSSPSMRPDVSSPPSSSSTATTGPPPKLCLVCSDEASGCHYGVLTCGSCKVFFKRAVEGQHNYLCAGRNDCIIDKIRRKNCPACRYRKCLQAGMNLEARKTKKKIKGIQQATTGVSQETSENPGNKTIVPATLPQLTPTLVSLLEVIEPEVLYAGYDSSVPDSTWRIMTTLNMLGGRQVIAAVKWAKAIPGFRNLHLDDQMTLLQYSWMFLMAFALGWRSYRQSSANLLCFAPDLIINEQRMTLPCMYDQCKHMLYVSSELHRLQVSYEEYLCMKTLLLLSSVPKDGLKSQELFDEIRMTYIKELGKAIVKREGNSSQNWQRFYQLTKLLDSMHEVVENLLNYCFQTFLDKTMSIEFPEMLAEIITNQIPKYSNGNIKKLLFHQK

Substance-P receptor = Substance-P receptor (Homo sapiens, UniProt P25103)
Cannabinoid receptor 1 = Cannabinoid receptor 1 (Homo sapiens, UniProt P21554); assay type: functional
[5] = molecular target: Gamma-aminobutyric acid type B receptor subunit 1 (Homo sapiens, UniProt Q9UBS5)
[6] = molecular target: T5, Muscarinic acetylcholine receptor M5 (Homo sapiens, UniProt P08912)
T5 sequence (P08912 whole entry): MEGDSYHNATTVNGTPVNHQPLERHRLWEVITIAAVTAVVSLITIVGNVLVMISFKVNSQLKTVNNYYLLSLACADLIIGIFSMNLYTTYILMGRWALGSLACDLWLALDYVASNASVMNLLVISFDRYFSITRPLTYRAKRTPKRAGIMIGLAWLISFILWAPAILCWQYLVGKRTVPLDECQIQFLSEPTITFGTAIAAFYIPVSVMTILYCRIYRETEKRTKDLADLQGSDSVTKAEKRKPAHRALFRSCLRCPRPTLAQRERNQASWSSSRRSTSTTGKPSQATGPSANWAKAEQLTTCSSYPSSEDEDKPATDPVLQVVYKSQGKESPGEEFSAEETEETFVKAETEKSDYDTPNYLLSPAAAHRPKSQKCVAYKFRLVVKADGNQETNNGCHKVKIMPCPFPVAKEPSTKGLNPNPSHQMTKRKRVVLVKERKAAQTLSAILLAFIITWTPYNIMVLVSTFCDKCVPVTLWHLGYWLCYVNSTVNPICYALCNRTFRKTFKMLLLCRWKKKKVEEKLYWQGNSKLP

[7] = molecular target: T2, Alpha-1A adrenergic receptor; remark: listed apart in the source
Histamine H1 receptor = Histamine H1 receptor (Homo sapiens, UniProt P35367); assay type: functional, cell-based
[8] = molecular target: Voltage-dependent L-type calcium channel subunit alpha-1C (Homo sapiens, UniProt Q13936); assay type: functional, cell-based
Also: assay procedure not described here.

Chain of Histamine H1 receptor (P35367 whole entry): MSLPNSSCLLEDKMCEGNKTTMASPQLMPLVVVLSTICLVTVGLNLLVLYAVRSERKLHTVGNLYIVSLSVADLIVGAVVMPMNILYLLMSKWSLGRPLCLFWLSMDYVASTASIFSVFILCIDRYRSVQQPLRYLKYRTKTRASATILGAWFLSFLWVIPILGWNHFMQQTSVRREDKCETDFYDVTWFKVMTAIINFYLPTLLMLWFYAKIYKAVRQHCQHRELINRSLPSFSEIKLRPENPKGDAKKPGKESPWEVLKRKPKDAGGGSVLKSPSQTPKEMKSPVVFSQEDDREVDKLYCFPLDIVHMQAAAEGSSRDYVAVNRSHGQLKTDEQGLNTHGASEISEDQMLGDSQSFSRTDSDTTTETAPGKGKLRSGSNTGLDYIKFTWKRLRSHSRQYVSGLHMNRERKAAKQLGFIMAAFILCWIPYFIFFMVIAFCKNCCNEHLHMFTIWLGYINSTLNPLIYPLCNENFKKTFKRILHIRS
T1 sequence (P21728 whole entry): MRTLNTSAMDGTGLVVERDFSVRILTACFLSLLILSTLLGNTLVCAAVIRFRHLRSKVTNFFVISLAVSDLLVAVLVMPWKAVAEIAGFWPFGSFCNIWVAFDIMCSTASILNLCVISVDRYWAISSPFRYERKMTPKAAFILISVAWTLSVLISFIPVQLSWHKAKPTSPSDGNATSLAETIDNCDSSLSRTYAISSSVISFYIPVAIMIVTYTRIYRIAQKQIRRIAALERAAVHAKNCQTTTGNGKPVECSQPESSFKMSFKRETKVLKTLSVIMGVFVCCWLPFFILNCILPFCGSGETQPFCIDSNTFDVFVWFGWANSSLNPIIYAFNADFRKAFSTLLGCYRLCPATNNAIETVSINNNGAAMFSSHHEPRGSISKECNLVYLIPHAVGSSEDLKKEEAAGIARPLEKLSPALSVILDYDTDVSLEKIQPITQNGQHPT
Chain of Gamma-aminobutyric acid type B receptor subunit 1 (Q9UBS5 whole entry): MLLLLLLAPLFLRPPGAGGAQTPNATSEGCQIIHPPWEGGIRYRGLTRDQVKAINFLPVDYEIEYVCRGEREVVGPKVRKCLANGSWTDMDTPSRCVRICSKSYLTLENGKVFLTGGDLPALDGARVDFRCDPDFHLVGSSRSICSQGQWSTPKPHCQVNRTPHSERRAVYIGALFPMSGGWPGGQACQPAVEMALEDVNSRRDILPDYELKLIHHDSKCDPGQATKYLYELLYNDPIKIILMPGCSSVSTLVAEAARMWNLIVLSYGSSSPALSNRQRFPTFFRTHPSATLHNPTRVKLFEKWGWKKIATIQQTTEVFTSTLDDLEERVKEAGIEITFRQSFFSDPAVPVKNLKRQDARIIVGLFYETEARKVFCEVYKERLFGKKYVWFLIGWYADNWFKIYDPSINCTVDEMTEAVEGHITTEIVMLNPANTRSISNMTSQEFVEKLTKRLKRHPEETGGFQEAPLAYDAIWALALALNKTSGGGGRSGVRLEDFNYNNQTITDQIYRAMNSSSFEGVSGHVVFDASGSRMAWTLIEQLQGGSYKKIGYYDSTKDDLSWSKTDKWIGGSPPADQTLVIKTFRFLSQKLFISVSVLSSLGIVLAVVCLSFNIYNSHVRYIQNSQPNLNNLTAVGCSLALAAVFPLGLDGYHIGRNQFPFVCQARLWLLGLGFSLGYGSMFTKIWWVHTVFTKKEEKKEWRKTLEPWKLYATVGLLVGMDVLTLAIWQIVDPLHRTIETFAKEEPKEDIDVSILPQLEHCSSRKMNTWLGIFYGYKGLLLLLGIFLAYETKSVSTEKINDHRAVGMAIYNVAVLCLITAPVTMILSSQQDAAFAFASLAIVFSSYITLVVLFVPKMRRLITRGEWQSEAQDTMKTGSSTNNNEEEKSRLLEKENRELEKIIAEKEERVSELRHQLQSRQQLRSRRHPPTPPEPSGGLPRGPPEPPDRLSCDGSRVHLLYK
Chain of Cannabinoid receptor 1 (P21554 whole entry): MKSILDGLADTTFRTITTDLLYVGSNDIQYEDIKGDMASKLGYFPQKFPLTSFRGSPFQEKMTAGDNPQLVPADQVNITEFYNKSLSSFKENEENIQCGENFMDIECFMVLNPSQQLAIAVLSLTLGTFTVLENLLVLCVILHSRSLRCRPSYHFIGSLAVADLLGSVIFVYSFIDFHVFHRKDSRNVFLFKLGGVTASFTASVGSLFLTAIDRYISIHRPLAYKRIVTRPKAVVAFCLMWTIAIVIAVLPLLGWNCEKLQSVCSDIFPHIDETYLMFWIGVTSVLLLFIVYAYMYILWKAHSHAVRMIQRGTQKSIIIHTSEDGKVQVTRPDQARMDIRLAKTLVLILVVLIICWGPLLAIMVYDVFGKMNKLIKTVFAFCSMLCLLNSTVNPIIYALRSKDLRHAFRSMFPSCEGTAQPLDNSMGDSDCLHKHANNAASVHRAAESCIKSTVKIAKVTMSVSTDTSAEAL
Chain of Substance-P receptor (P25103 whole entry): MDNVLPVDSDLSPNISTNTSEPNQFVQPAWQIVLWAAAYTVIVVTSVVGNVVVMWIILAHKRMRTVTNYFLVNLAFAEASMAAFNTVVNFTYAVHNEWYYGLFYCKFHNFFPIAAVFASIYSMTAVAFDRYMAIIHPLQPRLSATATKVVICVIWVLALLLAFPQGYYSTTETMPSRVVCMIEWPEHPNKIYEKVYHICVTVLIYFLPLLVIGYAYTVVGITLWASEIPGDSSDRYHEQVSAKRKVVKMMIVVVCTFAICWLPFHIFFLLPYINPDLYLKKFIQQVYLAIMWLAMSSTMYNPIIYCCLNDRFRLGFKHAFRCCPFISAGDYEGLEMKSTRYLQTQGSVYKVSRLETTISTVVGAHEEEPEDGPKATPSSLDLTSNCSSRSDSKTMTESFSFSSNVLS
Chain of Voltage-dependent L-type calcium channel subunit alpha-1C (Q13936 whole entry): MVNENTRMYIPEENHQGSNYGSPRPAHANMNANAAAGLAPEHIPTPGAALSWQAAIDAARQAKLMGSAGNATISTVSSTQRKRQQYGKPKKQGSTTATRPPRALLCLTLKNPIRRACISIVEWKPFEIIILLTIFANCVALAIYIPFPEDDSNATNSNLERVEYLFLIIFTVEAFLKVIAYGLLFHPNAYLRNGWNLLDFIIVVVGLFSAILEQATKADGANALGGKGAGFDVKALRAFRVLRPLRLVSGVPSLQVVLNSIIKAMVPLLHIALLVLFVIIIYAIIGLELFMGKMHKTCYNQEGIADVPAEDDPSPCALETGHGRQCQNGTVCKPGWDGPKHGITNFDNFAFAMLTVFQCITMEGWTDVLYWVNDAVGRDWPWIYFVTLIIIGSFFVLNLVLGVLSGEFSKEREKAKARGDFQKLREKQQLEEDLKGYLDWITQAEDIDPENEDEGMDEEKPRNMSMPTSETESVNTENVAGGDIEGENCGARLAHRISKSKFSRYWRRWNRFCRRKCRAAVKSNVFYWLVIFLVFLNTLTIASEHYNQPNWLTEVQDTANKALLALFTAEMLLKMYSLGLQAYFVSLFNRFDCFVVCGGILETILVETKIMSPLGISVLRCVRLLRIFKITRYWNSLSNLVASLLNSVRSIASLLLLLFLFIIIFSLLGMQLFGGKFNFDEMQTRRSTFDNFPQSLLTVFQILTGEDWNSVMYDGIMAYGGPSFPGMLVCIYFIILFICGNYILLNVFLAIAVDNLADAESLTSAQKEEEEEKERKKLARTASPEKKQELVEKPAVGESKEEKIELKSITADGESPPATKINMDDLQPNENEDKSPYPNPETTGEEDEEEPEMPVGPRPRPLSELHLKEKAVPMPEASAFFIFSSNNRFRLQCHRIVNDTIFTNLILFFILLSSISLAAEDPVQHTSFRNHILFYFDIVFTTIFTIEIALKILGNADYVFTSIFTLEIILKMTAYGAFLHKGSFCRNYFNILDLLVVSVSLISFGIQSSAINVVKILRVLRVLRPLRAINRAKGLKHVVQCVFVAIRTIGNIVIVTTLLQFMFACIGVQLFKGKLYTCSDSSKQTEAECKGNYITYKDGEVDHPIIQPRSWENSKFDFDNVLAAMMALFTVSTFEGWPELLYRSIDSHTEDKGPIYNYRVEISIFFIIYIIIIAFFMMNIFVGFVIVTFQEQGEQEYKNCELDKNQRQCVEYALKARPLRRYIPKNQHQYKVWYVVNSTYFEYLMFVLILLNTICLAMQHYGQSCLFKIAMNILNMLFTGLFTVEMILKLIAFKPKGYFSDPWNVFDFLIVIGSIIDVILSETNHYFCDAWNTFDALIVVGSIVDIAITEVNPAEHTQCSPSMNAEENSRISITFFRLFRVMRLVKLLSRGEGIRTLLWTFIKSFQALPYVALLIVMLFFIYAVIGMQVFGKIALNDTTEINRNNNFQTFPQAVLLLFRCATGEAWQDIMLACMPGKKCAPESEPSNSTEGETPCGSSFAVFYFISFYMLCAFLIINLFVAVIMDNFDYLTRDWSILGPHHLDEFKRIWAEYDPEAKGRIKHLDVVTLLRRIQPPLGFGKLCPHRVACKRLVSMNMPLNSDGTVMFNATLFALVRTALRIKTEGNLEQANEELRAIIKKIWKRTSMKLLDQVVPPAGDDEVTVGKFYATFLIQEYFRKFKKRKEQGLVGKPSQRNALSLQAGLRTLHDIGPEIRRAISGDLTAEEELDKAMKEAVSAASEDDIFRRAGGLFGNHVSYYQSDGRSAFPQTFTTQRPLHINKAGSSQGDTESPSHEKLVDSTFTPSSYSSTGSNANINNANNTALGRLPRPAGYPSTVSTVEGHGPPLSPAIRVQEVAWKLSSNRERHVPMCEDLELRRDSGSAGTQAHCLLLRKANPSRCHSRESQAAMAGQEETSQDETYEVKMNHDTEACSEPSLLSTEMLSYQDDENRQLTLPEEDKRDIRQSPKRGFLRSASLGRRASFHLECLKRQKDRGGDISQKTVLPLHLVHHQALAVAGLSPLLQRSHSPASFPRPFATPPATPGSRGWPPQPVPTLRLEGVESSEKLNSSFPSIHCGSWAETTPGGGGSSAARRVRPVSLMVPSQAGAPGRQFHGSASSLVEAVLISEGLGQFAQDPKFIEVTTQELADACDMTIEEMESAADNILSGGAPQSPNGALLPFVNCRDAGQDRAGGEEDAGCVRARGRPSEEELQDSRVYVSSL

FC(F)(F)c1ccc(CNc2ccc(Cc3c[nH]c4ncc(Cl)cc34)cn2)cn1 [PEXIDARTINIB]
AC50 (D(1A) dopamine receptor [1]): 5.53 µM
AC50 [2]: 1.31 µM

C[C@H](CCC(=O)O)[C@H]1CC[C@H]2[C@@H]3[C@@H](O)C[C@@H]4C[C@H](O)CC[C@]4(C)[C@H]3CC[C@]12C [URSODIOL]
AC50 (Estrogen receptor): > 30 µM
AC50 [3]: > 30 µM
AC50 (D(1A) dopamine receptor [4]): > 30 µM

CC(C(=O)O)c1ccc2c(c1)[nH]c1ccc(Cl)cc12 (centres undefined) [CARPROFEN]
AC50 (Glucocorticoid receptor): > 30 µM

CN(CC1(C)CCCO1)S(=O)(=O)c1ccc(Cl)c(S(N)(=O)=O)c1 (centres undefined) [MEFRUSIDE]
AC50 (D(1A) dopamine receptor [1]): > 30 µM
AC50 [2]: > 30 µM

COc1cc2nc(N3CCN(C(=O)C4CCCO4)CC3)nc(N)c2cc1OC (centres undefined) [TERAZOSIN]
AC50 (Substance-P receptor): > 10 µM

COc1ccccc1OCCNCC(O)COc1cccc2[nH]c3ccccc3c12 (centres undefined) [CARVEDILOL]
AC50 (Cannabinoid receptor 1): > 10 µM
AC50 (Substance-P receptor): 0.481 µM
AC50 [5]: > 10 µM
AC50 [6]: > 10 µM
AC50 [7]: 0.0099 µM

CCCN(CCC)C(=O)Cc1c(-c2ccc(Cl)cc2)nc2ccc(Cl)cn12 [ALPIDEM]
AC50 (Cannabinoid receptor 1): > 10 µM
AC50 [5]: > 10 µM
AC50 [6]: > 10 µM
AC50 [7]: > 10 µM

OC[C@@H](O)[C@@H](O)[C@H](O)[C@@H](O)CO [SORBITOL]
AC50 (D(1A) dopamine receptor [1]): > 30 µM
AC50 [2]: > 30 µM

C[C@@H](NCCCc1cccc(C(F)(F)F)c1)c1cccc2ccccc12
AC50 (Histamine H1 receptor): > 30 µM

CC(C)Cc1ccc(C(C)C(=O)O)cc1 (centres undefined) [IBUPROFEN]
AC50 (Cannabinoid receptor 1): > 10 µM
AC50 (Substance-P receptor): > 10 µM
AC50 [5]: > 10 µM
AC50 [6]: > 10 µM
AC50 [7]: > 10 µM
AC50 (Glucocorticoid receptor): > 30 µM

Cc1onc(-c2ccccc2)c1-c1ccc(S(N)(=O)=O)cc1 [VALDECOXIB]
AC50 (Cannabinoid receptor 1): > 10 µM
AC50 (Substance-P receptor): > 10 µM
AC50 [5]: > 10 µM
AC50 [6]: > 10 µM
AC50 [7]: > 10 µM

C#C[C@]1(O)CC[C@H]2[C@@H]3CCC4=CC(=O)CC[C@@H]4[C@H]3C(=C)C[C@@]21CC [ETONOGESTREL]
AC50 (D(1A) dopamine receptor [1]): > 30 µM
AC50 [2]: > 30 µM

CN1C[C@H](C(=O)N[C@]2(C)O[C@@]3(O)[C@@H]4CCCN4C(=O)[C@H](Cc4ccccc4)N3C2=O)C=C2c3cccc4[nH]cc(c34)C[C@H]21 [ERGOTAMINE]
AC50 (Estrogen receptor): > 30 µM
AC50 (Glucocorticoid receptor): > 30 µM

CC(C)c1nc(N(C)S(C)(=O)=O)nc(-c2ccc(F)cc2)c1/C=C/[C@@H](O)C[C@@H](O)CC(=O)O [ROSUVASTATIN]
AC50 (Estrogen receptor): > 30 µM
AC50 (Histamine H1 receptor): > 30 µM
AC50 (Glucocorticoid receptor): > 30 µM

C[C@H]1c2cccc(O)c2C(=O)C2=C(O)[C@]3(O)C(=O)C(C(N)=O)=C(O)[C@@H](N(C)C)[C@@H]3[C@@H](O)[C@@H]21 [DOXYCYCLINE]
AC50 (Substance-P receptor): > 10 µM
AC50 [7]: > 10 µM

CCN(CC)CCNC(=O)c1c(C)[nH]c(/C=C2\C(=O)Nc3ccc(F)cc32)c1C [SUNITINIB]
AC50 (Glucocorticoid receptor): > 10 µM
AC50 [8]: > 50 µM

COc1ccccc1Oc1c(NS(=O)(=O)c2ccc(C(C)(C)C)cc2)nc(-c2ncccn2)nc1OCCO [BOSENTAN]
AC50 [5]: > 10 µM
AC50 (Histamine H1 receptor): > 30 µM
AC50 (Glucocorticoid receptor): > 30 µM

Nc1ccc(S(=O)(=O)Nc2nccs2)cc1 [SULFATHIAZOLE]
AC50 (Substance-P receptor): > 10 µM
AC50 [7]: > 10 µM

COc1cc2nccc(Oc3ccc(NC(=O)C4(C(=O)Nc5ccc(F)cc5)CC4)cc3)c2cc1OC [CABOZANTINIB]
AC50 (Estrogen receptor): > 10 µM
AC50 (D(1A) dopamine receptor [4]): 13 µM
AC50 (Glucocorticoid receptor): > 30 µM

OC[C@H]1O[C@@](CO)(O[C@H]2O[C@H](CO)[C@@H](O)[C@H](O)[C@H]2O)[C@@H](O)[C@@H]1O [SUCROSE]
AC50 (D(1A) dopamine receptor [1]): > 30 µM
AC50 (Histamine H1 receptor): > 30 µM
AC50 [2]: > 30 µM

C[C@@H](Oc1cc(-c2cnn(C3CCNCC3)c2)cnc1N)c1c(Cl)ccc(F)c1Cl [CRIZOTINIB]
AC50 (Estrogen receptor): > 30 µM
AC50 (D(1A) dopamine receptor [4]): > 30 µM
AC50 (Glucocorticoid receptor): > 30 µM
AC50 [8]: > 30 µM

O=C1CCc2cc(OCCCCc3nnnn3C3CCCCC3)ccc2N1 [CILOSTAZOL]
AC50 [8]: > 50 µM

CCCC(CCC)C(=O)O [VALPROIC ACID]
AC50 (Cannabinoid receptor 1): > 10 µM
AC50 (Substance-P receptor): > 10 µM
AC50 [5]: > 10 µM
AC50 [6]: > 10 µM

CN1C(C(=O)Nc2ccccn2)=C(O)c2ccccc2S1(=O)=O [PIROXICAM]
AC50 (D(1A) dopamine receptor [1]): > 30 µM
AC50 [2]: > 30 µM

C=C[C@H]1C[N@@]2CC[C@H]1C[C@@H]2[C@@H](O)c1ccnc2ccc(OC)cc12 [QUINIDINE]
AC50 (Histamine H1 receptor): > 30 µM

CCOC(=O)c1c(C)cc2c(CO)n[nH]c(=O)c2c1C [OXAGRELATE]
AC50 (D(1A) dopamine receptor [1]): > 30 µM
AC50 [2]: > 30 µM

O=C(O)CO [GLYCOLIC ACID]
AC50 (D(1A) dopamine receptor [1]): > 30 µM
AC50 [2]: > 30 µM

CC[C@@]1(O)C(=O)OCc2c1cc1n(c2=O)Cc2cc3c([N+](=O)[O-])cccc3nc2-1 [RUBITECAN]
AC50 (D(1A) dopamine receptor [1]): > 30 µM
AC50 [2]: > 30 µM

CCN1CCN(Cc2ccc(Nc3ncc(F)c(-c4cc(F)c5nc(C)n(C(C)C)c5c4)n3)nc2)CC1 [ABEMACICLIB]
AC50 (Estrogen receptor): > 30 µM
AC50 [3]: 9.5 µM
AC50 (D(1A) dopamine receptor [4]): > 30 µM
AC50 (Glucocorticoid receptor): > 30 µM

N[C@@H](CC(=O)N1CCn2c(nnc2C(F)(F)F)C1)Cc1cc(F)c(F)cc1F [SITAGLIPTIN]
AC50 (Estrogen receptor): > 30 µM
AC50 (Cannabinoid receptor 1): > 10 µM
AC50 (Substance-P receptor): > 10 µM
AC50 [5]: > 10 µM
AC50 [6]: > 10 µM
AC50 [7]: > 10 µM
AC50 (Glucocorticoid receptor): > 30 µM
AC50 [8]: > 50 µM

CC(C)N(CCC(C(N)=O)(c1ccccc1)c1ccccn1)C(C)C (centres undefined) [DISOPYRAMIDE]
AC50 (Histamine H1 receptor): > 30 µM
AC50 [8]: > 50 µM

CO[C@H]1/C=C/O[C@@]2(C)Oc3c(C)c(O)c4c(O)c(c(/C=N/N5CCN(C)CC5)c(O)c4c3C2=O)NC(=O)/C(C)=C\C=C\[C@H](C)[C@H](O)[C@@H](C)[C@@H](O)[C@@H](C)[C@H](OC(C)=O)[C@@H]1C [RIFAMPIN]
AC50 (Cannabinoid receptor 1): > 10 µM
AC50 [7]: > 10 µM

CN(C)CCc1c[nH]c2ccc(Cn3cncn3)cc12 [RIZATRIPTAN]
AC50 (Cannabinoid receptor 1): > 10 µM
AC50 (Substance-P receptor): > 10 µM
AC50 [5]: > 10 µM
AC50 (Histamine H1 receptor): 20 µM
AC50 [6]: > 10 µM
AC50 [7]: > 10 µM
